According to patent US20080113868A1, “Colorant compositions and their use as pH sensitive color indicators” (priority 2006, published 2008):

Assays:
Type in all cases: physicochemical
[1] = Test for pH effect on de-coloration: absorbance in aqueous pH buffer solutions
Method: Several 1% solutions of colorant were prepared and added to standard aqueous pH buffer solutions available from VWR and Aldrich to give absorbance of less than one. The colorant solution was tested for absorbance using a DU 7 Spectrophotometer.
In general, the pKa value represents the pH value when approximately half of the colorant is converted to its colorless form. […] “Comparative” is indicated as “Comp.”

[2] = Lightfastness test (AATCC Test Method 16-1993 Option E), effect of ultraviolet light
Method: In order to determine the effect of ultraviolet light on the de-coloration rate over time of the colorant compositions of the present invention, the colorants were subjected to a lightfastness test. The test was performed according to AATCC Test Method 16-1993 Option E. Comparative Colorants 1-4 were also tested.
The results are provided as DE CMC values and represent the color difference from the standard or control, which was white paper. […] This value for each of the time intervals is then divided by the initial DE CMC value and multiplied by 100.

[3] = Cellulose powder staining test; details: on cellulose powder after stirring with deionized water for one minute
Method: Colorant 8 was diluted in water to an absorbtivity value of 33.5 A/g/L; then 0.73 parts was dissolved in 5 parts of methanol to give a stock solution A. One part of this solution was mixed with 10 parts of cellulose microcrystalline powder available from Aldrich. The colored powder was dried in a beaker in a 100° C. oven over 20 minutes with occasional stirring. The dry powder was cooled and stirred with 50 parts deionized water for one minute. The slurry was filtered and the filtrate was collected. The percent retention of color on the cellulose powder was calculated from the ratio of the absorbance of one part stock solution A diluted with 50 parts water and the absorbance of the filtrate solution.
The same procedure was used with a stock solution of 0.73 parts dodecenyl succinic ester acid colorant, Inventive Colorant 9, dissolved in 5 ml of methanol. The percent retention of color was determined in the same manner.

[4] = pH value when approximately half of the colorant is converted to its colorless form
[5] = ultraviolet light exposure time 0 hours
[6] = ultraviolet light exposure time 0 hours (initial)
[7] = ultraviolet light exposure time 2 hours
[8] = ultraviolet light exposure time 5 hours
[9] = ultraviolet light exposure time 10 hours
[10] = ultraviolet light exposure time 20 hours

| Molecule | Absorbance ([1]; aqueous buffer pH 2) | Absorbance ([1]; aqueous buffer pH 4) | Absorbance ([1]; aqueous buffer pH 6) | Absorbance ([1]; aqueous buffer pH 7) | Absorbance ([1]; aqueous buffer pH 8) | Absorbance ([1]; aqueous buffer pH 9) | Absorbance ([1]; aqueous buffer pH 10) | pKa Value [1, 4] | Percent Color Fade [2, 5] | DE CMC value (color difference from white paper) [2, 6] | DE CMC value (color difference from white paper) [2, 7] | Percent Color Fade [2, 7] | DE CMC value (color difference from white paper) [2, 8] | Percent Color Fade [2, 8] | DE CMC value (color difference from white paper) [2, 9] | Percent Color Fade [2, 9] | DE CMC value (color difference from white paper) [2, 10] | Percent Color Fade [2, 10] | pKa [1, 4] | Percent Color Retention [3] |
| --- | --- | --- | --- | --- | --- | --- | --- | --- | --- | --- | --- | --- | --- | --- | --- | --- | --- | --- | --- | --- |
| 3,4-methylenedioxyphenyl-methyliumylidene-di(4,1-phenyleneamino)N,N-polyethyleneoxy(10), Chloride [Colorant 3] | 0.9589 | 0.955 | 0.9609 | 0.7309 | 0.2375 | 0.0424 | 0.0199 | 7.5 | 0% | 75.15 | 36.95 | 50.83% | 34.25 | 54.42% | 33.39 | 55.57% | 29.45 | 60.81% |  |  |
| 3-Methoxy-4-Polyethyleneoxide(6)phenyl-methyliumylidene-di(4,1-phenyleneamino)N,N-polyethyleneoxy(10), Chloride [Colorant 5] | 0.8266 | 0.8269 | 0.7735 | 0.5674 | 0.1928 | 0.0527 | 0.0312 | 7.3 | 0% | 38.47 | 32.17 | 16.38% | 31.67 | 17.68% | 29.83 | 22.46% | 7.15 | 81.42% |  |  |
| 4-Methylphenyl-methyliumylidene-di(4,1-phenyleneamino)N,N-polyethyleneoxy(10), Chloride [Colorant 4] | 0.8881 | 0.8878 | 0.8304 | 0.569 | 0.154 | 0.0244 | 0.0079 | 7.3 | 0% | 50.95 | 41.31 | 18.92% | 38.99 | 23.47% | 37.19 | 27.01% | 30.97 | 39.22% |  |  |
| CCN(Cc1cccc(S(=O)(=O)[O-])c1)c1ccc(C(=C2C=CC(=[N+](CC)Cc3cccc(S(=O)(=O)[O-])c3)C=C2)c2ccccc2S(=O)(=O)[O-])cc1.[Na+].[Na+] [Comp. Colorant 3, Acid Blue 9, reference compound] | 0.764 | 0.7699 | 0.7253 |  | 0.7829 |  | 0.804 | >10 | 0% | 58.19 | 52.89 | 9.11% | 49.83 | 14.37% | 46.51 | 20.07% | 40.21 | 30.90% |  |  |
| CN(C)c1ccc(C(=C2C=CC(=[N+](C)C)C=C2)c2ccccc2)cc1 [Comp. Colorant 4, Basic Green 4, reference compound] | 0.319 | 0.3843 | 0.4546 | 0.2678 | 0.0538 | 0.0361 | 0.0111 |  | 0% | 44.71 | 14.37 | 67.86% | 13.05 | 70.81% | 9.65 | 78.42% | 5.67 | 87.32% | 7 |  |
| Phenyl-methyliumylidene-di(4,1-phenyleneamino)N,N-polyethyleneoxy(5), Chloride [Colorant 8] |  |  |  |  |  |  |  |  | 0% | 51.09 | 39.83 | 22.04% | 38.01 | 25.60% | 12.29 | 75.94% | 8.95 | 82.48% |  | 56% |
| Phenyl-methyliumylidene-di(4,1-phenyleneamino)N,N-polyethyleneoxy(5)-tetrakisDodecenylsuccinate acid, inner salt [Colorant 9] |  |  |  |  |  |  |  |  |  |  |  |  |  |  |  |  |  |  |  | 92.6% |
| Phenyl-methyliumylidene-di(4,1-phenyleneamino)N,N-polyethyleneoxy(10), Chloride [Colorant 1] | 0.95 | 0.95 | 0.82 | 0.35 | 0.05 | 0.005 | 0.005 | 6.6 |  |  |  |  |  |  |  |  |  |  |  |  |
